Assay results reported in patent US8187633B2, “Controlled release coated tablets having prolonged gastric retention” (Sun Pharma Advanced Research Company Limited, priority 2005, dated 2012).

Assay: in vitro dissolution testing in simulated gastric fluids, Type 1 USP dissolution apparatus
Format: physicochemical
Conditions: coated trilayer tablet of the Example, 0.01 N hydrochloric acid, 100 rpm, 37° C.
Procedure: The coated tablets were subjected to in vitro dissolution testing in simulated gastric fluids (0.01 N hydrochloric acid) at 100 rpm and 37° C. using Type 1 USP dissolution apparatus. [table]

% released (0 hours) [%]	% released (1 hour) [%]	% released (2 hours) [%]	% released (4 hours) [%]	% released (6 hours) [%]	% released (8 hours) [%]	SMILES
0	22	31	52	76	86	C[C@@](Cc1ccc(O)c(O)c1)(NN)C(=O)O [Carbidopa]
0	24	33	57	82	95	N[C@@H](Cc1ccc(O)c(O)c1)C(=O)O [levodopa]
